Results on four molecules are retold here after US9358252B2, “Polysaccharide compositions and methods of use for the treatment and prevention of disorders associated with progenitor cell mobilization” (MOMENTA PHARMACEUTICALS, INC., priority 2007, dated 2016).

Assay [1] relates to endothelial progenitor cells (EPC). The experiment in a line: EPC mobilization in normal mice, single MONC402 dose. The class given is in vivo. Conditions: G-CSF 200 μg/kg 3 days; docetaxel i.p. 40 mg/kg; cisplatin i.p. 6 mg/kg; 24 h. As for the experimental part: In one experiment, normal mice were treated with G-CSF (s.c., 3 consecutive days), docetaxel or cisplatin (one i.p. dose) with or without simultaneous MONC402 treatment (one s.c. dose). EPC mobilization was monitored 24 h later. Mice (8 mice/group) were dosed s.c. with Saline or MONC402 (40 mg/kg) (or DC101 at 40 mg/kg for control with docetaxel). About 30 min later, mice were given docetaxel (i.p., 40 mg/kg), cisplatin (i.p., 6 mg/kg), or saline control. As a positive control, 2 groups of mice were also dosed with G-CSF […]. (200 μg/kg) for 3 days, either alone or in combination with a single dose of MONC402 (s.c. at 40 mg/kg) on the last day. 24 h later, the mice were euthanized, and 0.5-0.8 mL of blood taken by cardiac puncture:
About 300 μL of whole blood was transferred directly into 14 mL of lysis buffer for flow cytometry of EPC. The remaining 300-600 μL were processed for serum (SDF-1α). For flow cytometry, lysed cells were washed and blocked, then stained with CD13-FITC, CD117-PE, 7-AAD, VEGFR2-APC, and CD45-PE/Cy7. A total of 50,000 cells were acquired per sample in the PBMNC gate.

Assay [2] shares this test system. The experiment in a line: EPC mobilization in mice, second experiment (daily MONC402 with G-CSF). Conditions: G-CSF 200 μg/kg s.c. 5 consecutive days; docetaxel i.p. 40 mg/kg. The format is in vivo. On the procedure: In a second experiment, it was tested if daily dosing for 5 days with MONC402 would generate a stronger inhibitory effect on EPC mobilization caused by treatment with a taxane.
Mice (10 mice/group) were dosed s.c. with Saline or MONC402 (40 mg/kg), or DC101 (40 mg/kg, as a positive inhibition control with docetaxel). About 30 min later, mice were given docetaxel (i.p., 40 mg/kg) or saline control. As a positive control, 2 groups of mice were also dosed with G-CSF (200 μg/kg) s.c. for 5 consecutive days±daily MONC402. 24 h later, the mice were euthanized, and 500-800 μL of blood taken by cardiac puncture. 150 μL were transferred into 5 mL of lysis buffer for flow cytometric analysis of EPC. The remaining 350-500 μL were processed for serum (SDF-1α). For flow cytometry, cells were washed and blocked and then stained with CD13-FITC, CD117-PE, 7-AAD, VEGFR2-APC, and CD45-PE/Cy7. A total of 50,000 cells were acquired per sample in the PBMNC gate.

Assay [3] has the same test system. The experiment in a line: Docetaxel induced EPC mobilization in 4T1 tumor bearing mice, MONC402 via osmotic pump. The class given is in vivo. Conditions: Docetaxel 40 mg/kg i.p. Day 6; MONC402 osmotic pump 40 mg/kg/day monotherapy. On the procedure: A third experiment was conducted to evaluate the effect of MONC402 on EPC mobilization in response to treatment with docetaxel in 4T1 tumor bearing mice.
4T1 tumors were implanted on Day 0 at 1×10^5 cells/mouse into the 4th mammary fat pad. Pumps with Saline or MONC402 were implanted on Day 0, immediately after tumor cell injections. Mice were randomized to the following groups: • 1. Saline Control, n=8 • 2. Docetaxel, 40 mg/kg, Day 6, n=8 • 3. M402, pump, 40 mg/kg/day, Day 0, n=8 • 4. Docetaxel, 40 mg/kg, Day 6+M402, pump, 40 mg/kg/day, Day 0, n=8
Docetaxel or Saline was administered i.p. on Day 6 in the AM. Four h later, mice were bled by submandibular plexus for EPC profiling and soluble factor analysis. Primary tumors were removed on Day 9 for histological analyses. Blood was also collected for soluble factor analyses (72 h after docetaxel dosing). Serum samples were analyzed using a 19-plex Luminex kit. In addition, samples were also tested for SDF-1α levels by ELISA.

Assay [4] has as its system C170HM2 human colorectal tumor cells. The experiment in a line: C170HM2 colon cancer metastasis to the liver model. The class given is in vivo, MF1 nude (nu/nu) athymic mice. Particulars: 25 mg/kg i.v. cycled on days 1, 3, 5, 7; liver tumors day 35. As for the experimental part: Liver metastasis was initiated by intraperitoneal injection of C170HM2 human colorectal tumor cells into male MF1 nude (nu/nu) athymic mice. 5FU/leucovorin was used as a positive control.
C170HM2 cells were maintained in vitro in RPMI culture medium (Sigma) containing 10% (v/v) heat inactivated fetal bovine serum and 2 mM L-glutamine at 37° C. in 5% CO2 and humidified conditions. Cells from sub-confluent monolayers were harvested with 0.025% EDTA, washed in culture medium and re-suspended in sterile phosphate buffered saline, pH 7.4 (PBS) for in vivo administration. 1.5×10^6 cells in a volume of 1 ml were injected intraperitoneally into 65 mice, and the mice were allocated into treatment groups as below.
Treatment was initiated on day 1 following cell injection and continued until day 35 or until the clinical condition of the animal required termination. Groups 5 and 6 missed one dose on day 5. No adverse affects of the test compounds in mice bearing the tumors were observed.
The study was terminated on day 35, and the tumors in the liver were excised and weighed. The numbers of lung nodules are also counted.

The subject of assay [5] is 4T1 cells. The experiment in a line: 4T1 breast cancer metastasis to the lung model, daily treatment. The format is in vivo, BALB/c mice. Particulars: Cisplatin weekly from day 5. On the procedure: Female BALB/c mice 8 weeks of age (WOA) were injected with 8×10^4 4T1 cell intra mammary fat pad. Daily treatment with saline or MONC402 with or without weekly treatment of cisplatin started on day 5. Primary tumors were removed on day 9 and weighed.

The test system of assay [6] is 4T1 cells. The experiment in a line: Second 4T1 experiment, osmotic pump delivery. The format is in vivo, BALB/c mice. Particulars: MONC402 20 mg/kg/day osmotic pump; Cisplatin 1.25 mg/kg weekly; day 32. On the procedure: FIG. 2 is a bar graph showing the effect of a polysaccharide preparation described herein in a 4T1 therapeutic model of breast cancer metastasis to the lung. Lung tumor burden (lung weight-normal lung weight) was determined on day 32 for female BALB/c mice (8 weeks old) challenged with intra-mammary fat pad injection of 8×10^4 4T1 cells and treated as indicated starting on day 4. In a second 4T1 experiment, female BALB/c mice 8 WOA were injected with 8×10^4 4T1 cells intra mammary fat pad. Continuous osmotic pump delivery of saline or MONC 402 with weekly treatment of saline or Cisplatin started on day 4. Primary tumors were removed on day 9. […] The experiment terminated on day 32 and different samples were taken. 6 mice were either found dead or were terminated early due to worsened overall condition. 4T1 lung metastases were determined by lung weight, lung tumor nodule quantification including nodule number, size and calculated tumor volume, as well as histological quantification.

As for `CC(=O)O[C@@]12CO[C@@H]1C[C@H](O)[C@@]1(C)C(=O)[C@H](O)C3=C(C)[C@@H](OC(=O)[C@H](O)[C@@H](NC(=O)OC(C)(C)C)c4ccccc4)C[C@@](O)([C@@H](OC(=O)c4ccccc4)[C@H]21)C3(C)C` [Docetaxel, docetaxel], the “EPC mobilization compared to Saline control” value in assay [1] was “significant increase”. The EPC mobilization entry in assay [2] is “significant increase”. Moreover, the “EPC in the blood at 4 h” value in assay [3] is “significant increase”.

For 5FU/leucovorin, in assay [4], the “Mean tumor area (% of vehicle)” value was 15.7 % of vehicle, the “Mean tumor area (mm^2)” value was 13.12 mm^2, the “Mean tumor weight” value came out at 0.037 g and the “Mean tumor weight (% of vehicle)” value is on record as 11.94 % of vehicle.

As to `N.N.[Cl][Pt][Cl]` [Cisplatin, cisplatin], the “EPC mobilization compared to Saline control” value in assay [1] is recorded as “did not show this effect”. Moreover, in the assay on 4T1 cells [5], the “Average lung tumor size” value was 1.41, the Average tumor size is recorded as 1.36, the “Lung tumor nodule #/animal” value came to 5.6 ± 4.4 and the Total tumor nodule amounted to 89. The molecule further gave a Total tumor volume in the assay with 4T1 cells [5] of 134.13. The 4T1 lung metastasis result in the assay with 4T1 cells [6] is given as “significant anti-tumor efficacy”.

B1: granulocyte colony stimulating factor (protein, UniProt P09919 31-207, looked up)
Granulocyte …: TPLGPASSLPQSFLLKCLEQVRKIQGDGAALQEKLVSECATYKLCHPEELVLLGHSLGIPWAPLSSCPSQALQLAGCLSQLHSGLFLYQGLLQALEGISPELGPTLDTLQLDVADFATTIWQQMEELGMAPALQPTQGAMPAFASAFQRRAGGVLVASHLQSFLEVSYRVLRHLAQP
notes: growth factor used as positive control for EPC and MDSC mobilization
Regarding B1, in assay [1], the “EPC mobilization compared to Saline control” value was “significant increase”. The EPC mobilization result in assay [2] was “significant increase”.
